Experimental data from paper PMC3325374 (Journal of Medicinal Chemistry, 2012).

Test system: MDR1-MDCK cell monolayers
Assay: MDR1-MDCK monolayer permeability assay
Type: in vitro ADME
Conditions: judged from MDR1-MDCK efflux ratio

P-gp mediated efflux (in words): subject to P-gp mediated efflux
SMILES: N#CCNC(=O)[C@H](Cc1c[nH]cn1)NC(=O)OCc1ccccc1 [Compound 10]
